According to BindingDB's records for doi:10.1002/cbic.200800538 (University of Toronto, 2009):

Biological target: T1, Alpha-mannosidase 2 (Drosophila melanogaster, UniProt Q24451)
T1 sequence (Q24451 whole entry): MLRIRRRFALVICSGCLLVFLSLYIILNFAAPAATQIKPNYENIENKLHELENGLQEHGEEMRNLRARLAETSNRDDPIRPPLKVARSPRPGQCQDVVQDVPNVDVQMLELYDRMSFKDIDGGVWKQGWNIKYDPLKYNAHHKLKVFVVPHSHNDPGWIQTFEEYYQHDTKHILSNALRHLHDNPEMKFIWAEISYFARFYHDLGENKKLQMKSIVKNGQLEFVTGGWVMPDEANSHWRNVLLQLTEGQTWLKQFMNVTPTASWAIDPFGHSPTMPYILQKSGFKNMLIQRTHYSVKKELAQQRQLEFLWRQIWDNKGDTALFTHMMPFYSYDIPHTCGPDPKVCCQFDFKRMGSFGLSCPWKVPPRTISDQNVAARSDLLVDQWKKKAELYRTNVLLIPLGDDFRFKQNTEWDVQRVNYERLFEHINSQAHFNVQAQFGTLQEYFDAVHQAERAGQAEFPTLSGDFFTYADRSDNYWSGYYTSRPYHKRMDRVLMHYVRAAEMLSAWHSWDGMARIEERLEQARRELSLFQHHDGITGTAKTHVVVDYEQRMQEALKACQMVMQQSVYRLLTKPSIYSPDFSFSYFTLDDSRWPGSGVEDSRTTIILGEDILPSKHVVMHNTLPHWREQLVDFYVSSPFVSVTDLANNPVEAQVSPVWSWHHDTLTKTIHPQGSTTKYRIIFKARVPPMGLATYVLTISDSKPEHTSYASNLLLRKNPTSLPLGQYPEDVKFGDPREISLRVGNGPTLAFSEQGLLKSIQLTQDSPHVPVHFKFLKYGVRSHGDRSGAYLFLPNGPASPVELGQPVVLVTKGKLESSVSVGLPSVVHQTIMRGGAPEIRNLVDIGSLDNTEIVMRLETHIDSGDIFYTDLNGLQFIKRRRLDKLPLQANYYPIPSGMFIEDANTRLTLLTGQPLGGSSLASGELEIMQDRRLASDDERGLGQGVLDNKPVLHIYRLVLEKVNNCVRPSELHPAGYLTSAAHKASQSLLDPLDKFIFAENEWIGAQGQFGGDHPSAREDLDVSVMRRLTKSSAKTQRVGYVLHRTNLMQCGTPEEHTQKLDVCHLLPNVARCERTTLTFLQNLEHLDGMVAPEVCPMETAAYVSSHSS
Assay: Inhibition Assay
Description: The rate of hydrolysis catalyzed by drosophila golgi alpha-mannosidase II (dGMII)and in the presence of different concentration of inhibitor was measured fluorometrically and Ki values were determined from Dixon plots.

SMILES	Ki	IC50
C[S+]([O-])[C@@H]1[C@@H](N)[C@@H](O)[C@@H](O)[C@H]1O (some centres not stated) [Mannostatin B, 2]	0.15 µM	–
N[C@H]1[C@@H](O)[C@@H](O)[C@@H](O)[C@H]1O [Mannostatin analogue, 4b]	–	100 µM
